“And” between values parts separate entries of the source, which are not always exact repeats. Equal values may be shown once. Toxic doses and inconclusive results are not listed. The calls were made as follows: active = survival T/C of 150% or more; inactive = T/C below 125% in these data. Starred links: 1 amine or outer side, 2 acyl side, 3 side chain; linkers in the order of their positions; H or OH if unused. Positions of bridges follow the written chain, without caps; N, C: chain ends. Non-standard residues stand in square brackets, D forms with d. Residues, ends and D or L forms follow the SMILES beside them. Chains are numbered I, II in the order given. Actinocin(9to1) = Cc1c2oc3c(C)ccc(C(=O)[*:1])c3nc-2c(C(=O)[*:2])c(N)c1=O; aThr = C[C@H](O)[C@H](N)C(=O)O; NMeV = CN[C@H](C(=O)O)C(C)C; Sar = CNCC(=O)O
System: BALB/c mice, Madison 109 lung carcinoma i.m., survival
Assay: NCI In Vivo Anticancer Drug Screen. Data for tumor model Madison 109 Lung Carcinoma (intramuscular) in BALB/CM mice
Settings: endpoint: median survival time, higher = longer survival
Procedure: The antitumor activity of compounds was measured in mice bearing transplantable tumors. Survival or tumor size were measured and the results are expressed as the measurement made in the treated group (T) divided by the measurement made in the vehicle treated control group (C). The tumor model used in this assay is Madison 109 Lung Carcinoma (intramuscular) in BALB/CM mice

[1] = dose: 12.5 mg/kg/injection, schedule: Q01DX009 (ip), vehicle: saline with Tween-80
[2] = dose: 16.0 mg/kg/injection, schedule: Q01DX009 (ip), vehicle: saline
[3] = dose: 32.0 mg/kg/injection, schedule: Q01DX009 (ip), vehicle: saline
[4] = dose: 0.5 mg/kg/injection, schedule: Q01DX009 (ip), vehicle: saline
[5] = dose: 1.0 mg/kg/injection, schedule: Q01DX009 (ip), vehicle: saline
[6] = dose: 2.0 mg/kg/injection, schedule: Q01DX009 (ip), vehicle: saline
[7] = dose: 4.0 mg/kg/injection, schedule: Q01DX009 (ip), vehicle: saline
[8] = dose: 8.0 mg/kg/injection, schedule: Q01DX009 (ip), vehicle: saline
[9] = dose: 4.0 mg/kg/injection, schedule: Q01DX009 (ip), vehicle: saline with Tween-80
[10] = dose: 100.0 mg/kg/injection, schedule: Q01DX009 (ip), vehicle: saline
[11] = dose: 8.0 mg/kg/injection, schedule: Q01DX009 (ip), vehicle: saline with Tween-80
[12] = dose: 50.0 mg/kg/injection, schedule: Q01DX009 (ip), vehicle: saline with Tween-80
[13] = dose: 100.0 mg/kg/injection, schedule: Q01DX009 (ip), vehicle: saline with Tween-80
[14] = dose: 200.0 mg/kg/injection, schedule: Q01DX009 (ip), vehicle: saline with Tween-80
[15] = dose: 400.0 mg/kg/injection, schedule: Q01DX009 (ip), vehicle: saline with Tween-80
[16] = dose: 0.25 mg/kg/injection, schedule: Q01DX009 (ip), vehicle: saline
[17] = dose: 32.0 mg/kg/injection, schedule: Q01DX009 (ip), vehicle: saline with Tween-80
[18] = dose: 64.0 mg/kg/injection, schedule: Q01DX009 (ip), vehicle: saline with Tween-80
[19] = dose: 25.0 mg/kg/injection, schedule: Q01DX009 (ip), vehicle: saline with Tween-80
[20] = dose: 25.0 mg/kg/injection, schedule: Q01DX009 (ip), vehicle: saline

Measured: T/C

Cc1cc(N(CC(C)Br)CC(C)Br)ccc1N=Nc1ccccc1C(=O)O (stereo not given)
inactive: dose: 3.12 mg/kg/injection, schedule: Q01DX009 (ip), vehicle: saline with Tween-80 110 % of control | dose: 6.25 mg/kg/injection, schedule: Q01DX009 (ip), vehicle: saline with Tween-80 105 % of control | [1] 113 % of control

Nc1ccc(C(=O)O)c(O)c1
inactive: dose: 37.5 mg/kg/injection, schedule: Q01DX009 (ip), vehicle: saline with Tween-80 116 % of control | dose: 75.0 mg/kg/injection, schedule: Q01DX009 (ip), vehicle: saline with Tween-80 116 % of control | dose: 150.0 mg/kg/injection, schedule: Q01DX009 (ip), vehicle: saline with Tween-80 108 % of control | dose: 300.0 mg/kg/injection, schedule: Q01DX009 (ip), vehicle: saline with Tween-80 101 % of control

CCN(CC)CCOc1ccc2c(c1)C(=O)c1cc(OCCN(CC)CC)ccc1-2
inactive: [2] 101 % of control | [3] 108 % of control | dose: 62.0 mg/kg/injection, schedule: Q01DX009 (ip), vehicle: saline 103 % of control

C[C@]12C=CC(=O)C=C1CC[C@@H]1[C@@H]2C(=O)C[C@@]2(C)[C@H]1CC[C@]2(O)C(=O)CO
inactive: dose: 5.0 mg/kg/injection, schedule: Q01DX009 (ip), vehicle: saline with Tween-80 95 % of control | dose: 10.0 mg/kg/injection, schedule: Q01DX009 (ip), vehicle: saline with Tween-80 98 % of control | dose: 20.0 mg/kg/injection, schedule: Q01DX009 (ip), vehicle: saline with Tween-80 97 % of control | dose: 40.0 mg/kg/injection, schedule: Q01DX009 (ip), vehicle: saline with Tween-80 92 % of control | dose: 80.0 mg/kg/injection, schedule: Q01DX009 (ip), vehicle: saline with Tween-80 92 % of control

Cc1c2oc3c(C)ccc(C(=O)N[C@@H]4C(=O)N[C@H](C(C)C)C(=O)N5CCC[C@H]5C(=O)N(C)CC(=O)N(C)[C@@H](C(C)C)C(=O)O[C@H]4C)c3nc-2c(C(=O)N[C@@H]2C(=O)N[C@H](C(C)C)C(=O)N3CCC[C@H]3C(=O)N(C)CC(=O)N(C)[C@@H](C(C)C)C(=O)O[C@H]2C)c(N)c1=O (I: [aThr][dV]P[Sar][NMeV] / II: [aThr][dV]P[Sar][NMeV]; ester I:1-I:C, II:1-II:C; linker I:N-II:N via Actinocin(9to1))
inactive: dose: 0.01 mg/kg/injection, schedule: Q01DX009 (ip), vehicle: saline 111 % of control | dose: 0.02 mg/kg/injection, schedule: Q01DX009 (ip), vehicle: saline 116 % of control | dose: 0.05 mg/kg/injection, schedule: Q01DX009 (ip), vehicle: saline 101 % of control

CC1=C(/C=C/C(C)=C/C=C/C(C)=C/C(=O)O)C(C)(C)CCC1
inactive: [4] 107 % of control | [5] 110 % of control | [6] 100 % of control | [7] 93 % of control and 94 % of control | [8] 98 % of control and 100 % of control | [2] 108 % of control | [3] 104 % of control

CC(=O)OCC1OC(OC(C)=O)C(NC(=O)N(CCCl)N=O)C(OC(C)=O)C1OC(C)=O (stereo not given)
inactive: dose: 0.5 mg/kg/injection, schedule: Q01DX009 (ip), vehicle: saline with Tween-80 100 % of control and 111 % of control | dose: 1.0 mg/kg/injection, schedule: Q01DX009 (ip), vehicle: saline with Tween-80 92 % of control and 102 % of control and 109 % of control | dose: 2.0 mg/kg/injection, schedule: Q01DX009 (ip), vehicle: saline with Tween-80 94 % of control and 112 % of control | [9] 110 % of control and 118 % of control

Nc1ncnc2c1ncn2C1OC(COP(=O)(O)O)C(O)C1O (stereo not given)
inactive: [10] 103 % of control and 107 % of control | dose: 200.0 mg/kg/injection, schedule: Q01DX009 (ip), vehicle: saline 102 % of control and 115 % of control | dose: 400.0 mg/kg/injection, schedule: Q01DX009 (ip), vehicle: saline 112 % of control

O=C1c2ccccc2C(=O)c2c(NCCNCCO)ccc(NCCNCCO)c21
inactive: [4] 116 % of control | [5] 119 % of control | [6] 102 % of control and 117 % of control | [9] 107 % of control and 115 % of control | [7] 117 % of control and 121 % of control | [11] 100 % of control and 118 % of control | [8] 113 % of control and 119 % of control | [2] 111 % of control

CCOC(=O)C(C)(C)Oc1ccc(Cl)cc1
inactive: [12] 112 % of control | [13] 109 % of control | [14] 116 % of control | [15] 109 % of control

O=C1c2c(O)ccc(O)c2C(=O)c2c(NCCNCCO)ccc(NCCNCCO)c21
inactive: dose: 0.12 mg/kg/injection, schedule: Q01DX009 (ip), vehicle: saline 108 % of control | [16] 117 % of control | [4] 123 % of control | [5] 123 % of control

Cc1c[nH]c(=O)[nH]c1=O
inactive: [17] 115 % of control and 118 % of control | [18] 97 % of control and 112 % of control | dose: 128.0 mg/kg/injection, schedule: Q01DX009 (ip), vehicle: saline with Tween-80 86 % of control and 115 % of control | dose: 256.0 mg/kg/injection, schedule: Q01DX009 (ip), vehicle: saline with Tween-80 106 % of control and 118 % of control | dose: 512.0 mg/kg/injection, schedule: Q01DX009 (ip), vehicle: saline with Tween-80 101 % of control and 102 % of control

CCN(CC)CCCC(C)Nc1c2ccc(Cl)cc2nc2ccc(OC)cc12 (stereo not given)
inactive: [11] 106 % of control | dose: 16.0 mg/kg/injection, schedule: Q01DX009 (ip), vehicle: saline with Tween-80 114 % of control | [17] 104 % of control | [18] 107 % of control

COc1cc2c(c(OC)c1OC)-c1ccc(OC)c(=O)cc1[C@@H](NC(C)=O)CC2
inactive: dose: 0.13 mg/kg/injection, schedule: Q01DX009 (ip), vehicle: saline 104 % of control | [16] 104 % of control | [4] 108 % of control | [5] 104 % of control

CC(C)CC(NC(=O)C(O)C(N)Cc1ccccc1)C(=O)O (stereo not given)
inactive: dose: 10.0 micrograms/kg/injection, schedule: Q01DX005 (ip), vehicle: saline 101 % of control

O=c1ccc2ccccc2o1
inactive: [19] 118 % of control | [12] 105 % of control and 111 % of control | [13] 100 % of control and 111 % of control | [14] 113 % of control

CC1=C(/C=C/C(C)=C/C=C/C(C)=C/CO)C(C)(C)CCC1
inactive: [6] 100 % of control | [7] 100 % of control | [8] 115 % of control | [2] 100 % of control | [3] 98 % of control | dose: 64.0 mg/kg/injection, schedule: Q01DX009 (ip), vehicle: saline 111 % of control

CCOC(OCC)C(=O)OCC(=O)[C@]1(O)Cc2c(O)c3c(c(O)c2[C@@H](OC2CC(N)C(O)C(C)O2)C1)C(=O)c1c(OC)cccc1C3=O (stereo not given in full)
inactive: dose: 0.12 mg/kg/injection, schedule: Q01DX009 (ip), vehicle: water 115 % of control | dose: 0.25 mg/kg/injection, schedule: Q01DX009 (ip), vehicle: water 124 % of control | dose: 0.5 mg/kg/injection, schedule: Q01DX009 (ip), vehicle: water 118 % of control

Nc1ccc(S(=O)(=O)c2ccc(N)cc2)cc1
inactive: [1] 102 % of control | [19] 103 % of control and 115 % of control | [12] 113 % of control and 117 % of control | [13] 112 % of control | [14] 96 % of control and 102 % of control | [15] 108 % of control

CNc1nc(N(C)C)nc(N(C)C)n1
inactive: [20] 100 % of control | dose: 50.0 mg/kg/injection, schedule: Q01DX009 (ip), vehicle: saline 100 % of control

CNNCc1ccc(C(=O)NC(C)C)cc1
inactive: [20] 116 % of control | [10] 114 % of control

Reference: PubChem BioAssay AID302 (DTP/NCI, 2004)
